Assay results taken from ChEMBL document CHEMBL1201862, “PubChem BioAssay data set” (2004).
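Each compound was tested at five concentrations against cells in 96-well plates for 48 hours. The concentration for 50% growth inhibition is given as GI50.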 The source made the active and inactive calls. No stated cut-off is given here; in the data, active = GI50 up to about 1.1 µM and inactive = higher.

Experiments:
Test in all cases: growth of human tumour cells (NCI), 48 h
786-0 = system: 786-0
A498 = system: A498
A549 = system: A549
ACHN = system: ACHN
CCRF-CEM = system: CCRF-CEM
COLO 205 = system: COLO 205
DLD-1 = system: DLD-1
DMS-114 = system: DMS-114
DMS-273 = system: DMS-273
HCC 2998 = system: HCC 2998
HCT-116 = system: HCT-116
HCT-15 = system: HCT-15
HL-60 = system: HL-60
HOP-18 = system: HOP-18
HOP-62 = system: HOP-62
HOP-92 = system: HOP-92
HT-29 = system: HT-29
IGROV-1 = system: IGROV-1
K562 = system: K562
KM-20L2 = system: KM-20L2
KM12 = system: KM12
LOX IMVI = system: LOX IMVI
LXFL 529 = system: LXFL 529
M14 = system: M14
M19-MEL = system: M19-MEL
MOLT-4 = system: MOLT-4
Malme-3M = system: Malme-3M
NCI-H226 = system: NCI-H226
NCI-H23 = system: NCI-H23
NCI-H460 = system: NCI-H460
NCI-H522 = system: NCI-H522
OVCAR-3 = system: OVCAR-3
OVCAR-5 = system: OVCAR-5
OVCAR-8 = system: OVCAR-8
RPMI-8226 = system: RPMI-8226
RXF 393 = system: RXF 393
SF-268 = system: SF-268
SF-295 = system: SF-295
SF-539 = system: SF-539
SK-MEL-2 = system: SK-MEL-2
SK-MEL-5 = system: SK-MEL-5
SK-OV-3 = system: SK-OV-3
SN12C = system: SN12C
SNB-19 = system: SNB-19
SNB-75 = system: SNB-75
SR = system: SR
SW-620 = system: SW-620
TK-10 = system: TK-10
U-251 = system: U-251
UACC-257 = system: UACC-257
UACC-62 = system: UACC-62
UO-31 = system: UO-31
XF498 = system: XF498
BT-549 = system: BT-549
CAKI-1 = system: CAKI-1
DU-145 = system: DU-145
EKVX = system: EKVX
Hs-578T = system: Hs-578T
MCF7 = system: MCF7
MDA-MB-231 = system: MDA-MB-231
MDA-MB-435 = system: MDA-MB-435
MDA-N = system: MDA-N
NCI/ADR-RES = system: NCI/ADR-RES
OVCAR-4 = system: OVCAR-4
PC-3 = system: PC-3
SK-MEL-28 = system: SK-MEL-28
SNB-78 = system: SNB-78
T47D = system: T47D

Structure (SMILES): COc1cc(CNC2c3cc4c(cc3C(c3cc(OC)c(OC)c(OC)c3)[C@H]3C(=O)OCC23)OCO4)cc(OC)c1OC (stereo partly drawn)
- GI50 (786-0): 428 nM (active)
- GI50 (A498): 254 nM (active)
- GI50 (A549): 417 nM (active)
- GI50 (ACHN): 420 nM (active)
- GI50 (CCRF-CEM): 350 nM (active)
- GI50 (COLO 205): 180 nM (active)
- GI50 (DLD-1): 410 nM (active)
- GI50 (DMS-114): 197 nM (active)
- GI50 (DMS-273): 237 nM (active)
- GI50 (HCC 2998): 305 nM (active)
- GI50 (HCT-116): 245 nM (active)
- GI50 (HCT-15): 324 nM
- GI50 (HL-60): 223 nM (active)
- GI50 (HOP-18): 55500 nM (inactive)
- GI50 (HOP-62): 231 nM (active)
- GI50 (HOP-92): 528 nM (active)
- GI50 (HT-29): 335 nM (active)
- GI50 (IGROV-1): 1100 nM (active)
- GI50 (K562): 298 nM (active)
- GI50 (KM-20L2): 197 nM (active)
- GI50 (KM12): 177 nM (active)
- GI50 (LOX IMVI): 288 nM (active)
- GI50 (LXFL 529): 356 nM (active)
- GI50 (M14): 447 nM (active)
- GI50 (M19-MEL): 1280 nM (inactive)
- GI50 (MOLT-4): 367 nM (active)
- GI50 (Malme-3M): > 100000 nM (inactive)
- GI50 (NCI-H226): 128 nM (active)
- GI50 (NCI-H23): 267 nM (active)
- GI50 (NCI-H460): 290 nM (active)
- GI50 (NCI-H522): 66.1 nM (active)
- GI50 (OVCAR-3): 627 nM (active)
- GI50 (OVCAR-5): > 100000 nM (inactive)
- GI50 (OVCAR-8): 247 nM (active)
- GI50 (RPMI-8226): 419 nM (active)
- GI50 (RXF 393): 308 nM (active)
- GI50 (SF-268): 372 nM (active)
- GI50 (SF-295): 137 nM (active)
- GI50 (SF-539): 191 nM (active)
- GI50 (SK-MEL-2): 426 nM (active)
- GI50 (SK-MEL-5): 216 nM (active)
- GI50 (SK-OV-3): 385 nM (active)
- GI50 (SN12C): 376 nM (active)
- GI50 (SNB-19): 272 nM (active)
- GI50 (SNB-75): 535 nM (active)
- GI50 (SR): 314 nM (active)
- GI50 (SW-620): 416 nM (active)
- GI50 (TK-10): > 100000 nM (inactive)
- GI50 (U-251): 318 nM (active)
- GI50 (UACC-257): > 100000 nM (inactive)
- GI50 (UACC-62): 156 nM (active)
- GI50 (UO-31): 792 nM (active)
- GI50 (XF498): 364 nM (active)

Structure (SMILES): COc1cc([C@@H]2c3cc4c(cc3[C@@H](OC3OC5CO[C@@H](c6cccs6)OC5C(O)C3O)[C@H]3COC(=O)[C@H]23)OCO4)cc(OC)c1O (stereo partly drawn)
- GI50 (786-0): 285 nM (active)
- GI50 (A498): 394 nM (active)
- GI50 (A549): 144 nM (active)
- GI50 (ACHN): 173 nM (active)
- GI50 (BT-549): 586 nM (active)
- GI50 (CAKI-1): 73.3 nM (active)
- GI50 (CCRF-CEM): 46 nM (active)
- GI50 (COLO 205): 527 nM (active)
- GI50 (DLD-1): 2180 nM (inactive)
- GI50 (DMS-273): 84 nM (active)
- GI50 (DU-145): 324 nM (active)
- GI50 (EKVX): 1300 nM (inactive)
- GI50 (HCC 2998): 671 nM (active)
- GI50 (HCT-116): 885 nM (active)
- GI50 (HCT-15): 1550 nM
- GI50 (HL-60): 52.1 nM (active)
- GI50 (HOP-18): 1570 nM (inactive)
- GI50 (HOP-62): 135 nM (active)
- GI50 (HOP-92): 132 nM (active)
- GI50 (HT-29): 1610 nM (inactive)
- GI50 (Hs-578T): 420 nM (active)
- GI50 (IGROV-1): 1700 nM (inactive)
- GI50 (K562): 724 nM (active)
- GI50 (KM-20L2): 2120 nM (inactive)
- GI50 (KM12): 753 nM (active)
- GI50 (LOX IMVI): 206 nM (active)
- GI50 (M14): 594 nM (active)
- GI50 (M19-MEL): 828 nM (active)
- GI50 (MCF7): 38 nM (active)
- GI50 (MDA-MB-231): 1120 nM (active)
- GI50 (MDA-MB-435): 1340 nM (inactive)
- GI50 (MDA-N): 1030 nM (active)
- GI50 (Malme-3M): 656 nM (active)
- GI50 (NCI-H226): 320 nM (active)
- GI50 (NCI-H23): 406 nM (active)
- GI50 (NCI-H460): 17.1 nM (active)
- GI50 (NCI-H522): 482 nM (active)
- GI50 (NCI/ADR-RES): 23400 nM (inactive)
- GI50 (OVCAR-3): 1730 nM (inactive)
- GI50 (OVCAR-4): 5120 nM (inactive)
- GI50 (OVCAR-5): 1770 nM (inactive)
- GI50 (OVCAR-8): 538 nM (active)
- GI50 (PC-3): 1110 nM (active)
- GI50 (RPMI-8226): 164 nM (active)
- GI50 (RXF 393): 478 nM (active)
- GI50 (SF-268): 480 nM (active)
- GI50 (SF-295): 144 nM (active)
- GI50 (SF-539): 205 nM (active)
- GI50 (SK-MEL-28): 1660 nM (inactive)
- GI50 (SK-MEL-2): 1090 nM (active)
- GI50 (SK-MEL-5): 548 nM (active)
- GI50 (SK-OV-3): 395 nM (active)
- GI50 (SN12C): 313 nM (active)
- GI50 (SNB-19): 299 nM (active)
- GI50 (SNB-75): 502 nM (active)
- GI50 (SNB-78): 1080 nM (active)
- GI50 (SR): 11.7 nM (active)
- GI50 (SW-620): 240 nM (active)
- GI50 (T47D): 162 nM (active)
- GI50 (TK-10): 1750 nM (inactive)
- GI50 (U-251): 147 nM (active)
- GI50 (UACC-257): 1860 nM (inactive)
- GI50 (UACC-62): 183 nM (active)
- GI50 (UO-31): 4350 nM (inactive)
- GI50 (XF498): 310 nM (active)

Structure (SMILES): COc1ccc2c(c1)c[n+](C)c1c3cc(OC)c(OC)cc3ccc21
- GI50 (A549): 2740 nM (inactive)
- GI50 (CAKI-1): 17600 nM (inactive)
- GI50 (COLO 205): 1410 nM (inactive)
- GI50 (DLD-1): 4860 nM (inactive)
- GI50 (DMS-114): 1980 nM (inactive)
- GI50 (DMS-273): 1570 nM (inactive)
- GI50 (HCT-15): 24900 nM
- GI50 (HOP-18): 12400 nM (inactive)
- GI50 (Hs-578T): 2230 nM (inactive)
- GI50 (K562): 2040 nM (inactive)
- GI50 (KM-20L2): 4840 nM (inactive)
- GI50 (LOX IMVI): 1950 nM (inactive)
- GI50 (LXFL 529): 1960 nM (inactive)
- GI50 (M19-MEL): 6440 nM (inactive)
- GI50 (MDA-MB-231): 1590 nM (inactive)
- GI50 (MDA-N): 2500 nM (inactive)
- GI50 (NCI-H522): 1670 nM (inactive)
- GI50 (OVCAR-3): 4160 nM (inactive)
- GI50 (OVCAR-8): 1730 nM (inactive)
- GI50 (RPMI-8226): 1750 nM (inactive)
- GI50 (SF-268): 2750 nM (inactive)
- GI50 (SK-OV-3): 9400 nM (inactive)
- GI50 (SN12C): 2910 nM (inactive)
- GI50 (SNB-19): 4780 nM (inactive)
- GI50 (SNB-78): 6950 nM (inactive)
- GI50 (SR): 1380 nM (inactive)
- GI50 (SW-620): 1550 nM (inactive)
- GI50 (U-251): 1940 nM (inactive)
- GI50 (UACC-62): 11300 nM (inactive)
- GI50 (XF498): 4230 nM (inactive)
